Data set [1] can be described thus: Compound 4 pharmacokinetics and tissue exposure after five daily subcutaneous doses. Type of data set: in vivo, C57BL/6 mice. As to the method:
Study design details: • Animals were allowed to acclimate to the test facility for at least two days prior to the beginning of the study. • Study animals were male C57BL/6 mice weighing approximately 18-25 grams each. • Fasting was not required for the study. • Body weights were recorded prior to dose administration. The volume of each dose delivered (mL/kg) was based on each individual animal's body weight. • This was a multiple dose serial PK dosed subcutaneously once daily over 5 days. Compound 4 was administered to two groups: Group 1 at 60 mg/kg and Group 2 at 180 mg/kg (6 and 18 mg/mL, 15% Kolliphor ELP in PBS, 10 mL/kg; N=3/group). Serial PK timepoints were collected following the 5th and final dose.
Sample collection details: • Serial blood samples were collected via tail vein snip. • Blood samples were collected into tubes with anticoagulant. Tubes were stored on wet ice until processed to plasma by centrifugation (3500 rpm at 5° C. for 10 minutes) within 20 minutes of collection. Sample aliquots of 20 μL were transferred into individual uniquely labeled matrix tubes and stored at nominal −80° C. until transferred to analytical chemistry for analysis. • Immediately following each terminal blood collection for all groups, animals were sacrificed and perfused with cold PBS. Heart and brain tissues were collected. • Perfusion methodology: The chest was opened lengthwise using scissors to expose the thoracic organs. A scalpel was used to cut a small hole into the left ventricle just large enough to insert a cannula tip. The cannula was attached to an appropriately sized tubing and syringe prefilled with cold PBS and primed to remove any air. The tip of the cannula was inserted into the left ventricle and directed into the ascending aorta. Hemostats were used to help keep the cannula in place during perfusion. A second hole was made in the right atrium to allow for the escape of fluid during the return circulation. The syringe attached to the cannula was manually pushed or placed into a pump programmed to infuse at 10 mL/min. Animals were perfused for a minimum of 3 minutes or more if needed (until the exiting fluid was clear).
• N=3/group; • Collections relative to the final dose: • Plasma: 60 mg/kg at 2 and 24 hr, 180 mg/kg at predose, 2, 8, and 24 hr • Heart and Brain: 24 hr (terminal, PBS-perfused); • RGA 2 bioanalysis.
• N=3/timepoint; • Collections relative to the final dose: • Plasma: 0.5, 2, 8, and 24 hr (terminal) • Heart and Brain: 0.5, 2, 8, and 24 hr (terminal, PBS-perfused) • RGA 2 bioanalysis.

The test system of data set [2] is Ndufs4-KO mouse model of Leigh syndrome. Nature of the data set: Survival study in Ndufs4-KO mouse model of Leigh syndrome. Type of data set: in vivo. Particulars: Ndufs4-KO mice. The procedure: Study design. A survival study was performed to test Compound 4 in a whole body (WB)-Ndufs4-KO mouse model of Leigh syndrome (B6.129S4-Ndufs4^tm1.1Rpa/J; JAX Stock #027058; “Ndufs4-KO mice”). Defects in the non-enzymatic, nuclear-encoded protein, NDUFS4 (NADH dehydrogenase (ubiquinone) Fe—S protein 4), cause a Leigh-like phenotype in humans that results in death within 3-16 months after birth. Exon 2 of the mouse Ndufs4 gene has been excised in this knockout allele. Three groups of mice were included in this study: (1) wild-type (WT) C57BL/6J mice (n=12), each receiving 20 mg/kg Compound 4 subcutaneously once per day starting at postnatal age 21 days (P21); (2) Ndufs4-KO mice (homozygous knock outs (“HOM”)) (“HOM Vehicle”) (n=9), each receiving vehicle (5% Kolliphor-ELP in 1×PBS at a dosage of 10 mL/kg/day) subcutaneously once per day starting at P21; and (3) Ndufs4-KO mice (“HOM Comp. 4, 20 mg/kg”) (n=13), each receiving 20 mg/kg Compound 4 subcutaneously per day starting at P21. All studies were performed under the approved IACUC protocol at Jackson Laboratories (Bar Harbor, ME). The mice were sacrificed and necropsied upon reaching a humane endpoint as determined by body conditioning and neurological scoring method developed by Jackson Laboratory for this animal model. Terminal plasma was collected via cardiocentesis post euthanasia for future analysis.
Statistical analysis. Kaplan Meier plot followed by chi squared test were performed using GraphPad Prism version 10.0.0, GraphPad Software (Boston, Massachusetts) (www.graphpad.com).

Data set [3] has the same test system. The experiment in a line: Biomarker evaluation study in Ndufs4-KO mouse model of Leigh syndrome. Type of data set: in vivo. The following applies: Ndufs4-KO mice. As to the method: Study design. A biomarker evaluation study was performed to test Compound 4 in a mouse model of Leigh syndrome (B6.129S4-Ndufs4^tm1.1Rpa/J; JAX Stock #027058). All studies were performed under the approved IACUC protocol at Jackson Laboratories Bar Harbor ME. Three groups of mice were included in this study: (1) wild-type (WT) C57BL/6J mice (n=8), each receiving 20 mg/kg Compound 4 subcutaneously once per day starting at postnatal age 21 days (P21); (2) Ndufs4-KO mice (homozygous knock outs (“HOM”)) (“HOM Veh”) (n=8), each receiving vehicle (5% Kolliphor-ELP in 1×PBS at a dosage of 10 mL/kg/day) subcutaneously once per day starting at P21; and (3) Ndufs4-KO mice (“HOM Comp. 4, 20 mg/kg”) (n=8), each receiving 20 mg/kg Compound 4 subcutaneously per day starting at P21. From the age of P30, body weight and body temperature was measured daily. At the age of P30 and P40 animals were made to perform a forced exercise on an inclining treadmill for up to 15 minutes or reaching exhaustion whichever happened first. Retro-orbital blood collection (for plasma) was performed after each exercise session for L-Lactic acid level analysis using an enzymatic reaction (biochemical) method with colorimetric read out. The mice were sacrificed and necropsied at P45 or upon reaching a humane endpoint as determined by body conditioning and neurological scoring method developed by Jackson Laboratory for this animal model. Terminal plasma was collected via cardiocentesis post-euthanasia for mitokine analysis (GDF-15 and FGF-21) using an ELISA kit (Abcam: ab216947, ab212160). The manufacturer protocol was followed to generate a standard curve. Plasma was diluted 1:5 in phosphate buffered saline for the ELISA.
Statistical analysis. Kaplan Meier plot followed by chi squared test & two-way ANOVA followed by Dunnett's multiple comparisons test were performed using GraphPad Prism version 10.0.0, GraphPad Software (Boston, Massachusetts) (www.graphpad.com).

Where [4] appears, read: male, C57BL/6, mouse, in vivo, sc, 60 mg/kg.
The mark [5] stands for this setting: 20 mg/kg SC daily, terminal plasma, FIG. 24C.

In data set [1] (male, C57BL/6, mouse, in vivo, sc), `CC1=C(C)C(=O)C(CC[C@](C)(O)CCCCCCCCC(F)(F)F)=C(C)C1=O` [Compound 4] yielded a time to steady-state of at most 5 days. In data set [1] (setting [4]), this compound returned an AUClast/Dose of 257 kg·ng·h/mL/mg and a Cmax/Dose of 24.0 kg·ng/mL/mg. The compound further returned an AUClast/Dose in data set [1] (male, C57BL/6, mouse, in vivo, sc, 180 mg/kg) of 273 kg·ng·h/mL/mg. In data set [1] (male, C57BL/6, mouse, in vivo, sc, 180 mg/kg, 24 h), this compound displayed a C24/Dose of 1.48 kg·ng/mL/mg. Moreover, the “concentrations in heart versus brain” value in data set [1] (mouse tissue after 5 days) is on record as “Similar”. In addition, in data set [1] (mouse, in vivo), the “C24 (trough) tissue exposure versus dose” value is reported as “approximately proportional to dose”. In data set [2] (20 mg/kg SC daily from P21), the “effect on survival, Gehan Breslow-Wilcoxon test P” value is recorded as under 0.0001 and the “effect on survival, logrank test P” value is on record as under 0.0001. In data set [2] (20 mg/kg SC once per day from P21, vs vehicle, FIG. 23), the survival result was “significantly improved survival”. For the same compound, the survival proportion entry in data set [3] (20 mg/kg SC daily from P21 until P46, vs vehicle, FIG. 24A) is given as “improved survival proportion”. The “exercise-induced lactic acidosis (plasma lactate)” value in data set [3] (20 mg/kg SC daily, forced exercise at P30 and P40, FIG. 24B) was “mitigated exercise-induced lactic acidosis”. Further, in data set [3] (setting [5]), the “plasma FGF-21” value is “normalizing trends” and the “plasma GDF-15” value is reported as “significantly normalized”.

Source of the values: patent US20250144049A1, “METHODS, COMPOSITIONS, AND USES RELATED TO THE TREATMENT AND PREVENTION OF LEIGH SYNDROME” (Stealth BioTherapeutics Inc., priority 2023, published 2025).
